Assay results taken from patent US10202349B2, “Asymmetric bis-acridines with antitumour activity and their uses” (POLITECHNIKA GDAŃSKA, priority 2015, dated 2019).
“And” between values parts separate entries of the source, which are not always exact repeats. Identical values can stand only once.

Assays:
H T29 = test: Anti-neoplasmic activity against xenograft in hairless mice; format: in vivo; details: series 3, i.v., total 24 mg/kg, day 20
Summary of the method: (§1)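 s.c. xenograft, 5×10^6 cells/mouse, female hairless mice, 5 wk. Start Rx at ~100 or 200 mm^3; 6–8 per test group. i.v. (or i.p.) 2×/wk ×4 wk, 3 doses. Readout: tumour volume, TGI %.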

DU 145 = test: as above; format: in vivo
Summary of the method: (§2)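 Mice bearing subcutaneous human tumours were randomised once tumours reached about 100 or 200 mm^3, then treated intravenously twice weekly for four weeks, with some series given intraperitoneally. Tumour length and width were measured twice weekly to derive volume and inhibition relative to controls.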

H 460 = test: as above; format: in vivo
Summary of the method: (§3)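 TGI calculated as 100−(ΔVT/ΔVC×100), using mean volume change from therapy start in treated versus control mice. Xenografts: s.c. 5×10^6 cells, female Crl:Nu-Foxn1nu mice aged 5 weeks. Compounds dosed i.v. twice weekly for 4 weeks at three doses; tumours measured twice weekly.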

Mia Pa Ca 2 = test: as above; format: in vivo
Summary of the method: as §1

HT-29 = test: Cytotoxic activity in vitro, SRB; format: cell-based, human
Summary of the method: (§4)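 Values are EC50s, defined as the concentration of compound at which cell growth falls to 50% of control, determined by SRB assay in human-origin neoplastic cell lines.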

AsPC-1 = test: Cytotoxic activity in vitro, SRB; format: cell-based, human
Summary of the method: as §4

H-460 = test: Cytotoxic activity in vitro, SRB; format: cell-based, human
Summary of the method: as §4

PANC-1 = test: Cytotoxic activity in vitro, SRB; format: cell-based, human
Summary of the method: as §4

MiaPaCa-2 = test: Cytotoxic activity in vitro, SRB; format: cell-based, human
Summary of the method: as §4

DU-145 = test: Cytotoxic activity in vitro, SRB; format: cell-based, human
Summary of the method: as §4

MCF-7 = test: Cytotoxic activity in vitro, SRB; format: cell-based, human
Summary of the method: as §4

MDA-MB-231 = test: Cytotoxic activity in vitro, SRB; format: cell-based, human
Summary of the method: as §4

PC-3 = test: Cytotoxic activity in vitro, SRB; format: cell-based, human
Summary of the method: as §4

UM-UC-3 = test: Cytotoxic activity in vitro, SRB; format: cell-based, human
Summary of the method: as §4

HCT-116 = test: Cytotoxic activity in vitro, SRB; format: cell-based, human
Summary of the method: as §4

PANC 1 = test: Anti-neoplasmic activity against xenograft in hairless mice; format: in vivo
Summary of the method: as §3

UM UC 3 = test: as above; format: in vivo; details: series 11, i.v., day 23
Summary of the method: as §1

MDA MB 231 = test: as above; format: in vivo; details: series 19, i.v.
Summary of the method: as §1

BxPC-3 = test: Cytotoxic activity in vitro, SRB; format: cell-based, human
Summary of the method: as §4

HCT 116 = test: Anti-neoplasmic activity against xenograft in hairless mice; format: in vivo
Summary of the method: as §1

Capan-2 = test: Cytotoxic activity in vitro, SRB; format: cell-based, human
Summary of the method: as §4

BXPC 3 = test: Anti-neoplasmic activity against xenograft in hairless mice; format: in vivo
Summary of the method: as §1

PC 3 = test: as above; format: in vivo; details: single 1 mg/kg, total 8 mg/kg, day 39
Summary of the method: as §2

AsPC 1 = test: as above; format: in vivo
Summary of the method: as §1

Compound | EC50 (HT-29) [µM] | EC50 (AsPC-1) [µM] | EC50 (H-460) [µM] | EC50 (PANC-1) [µM] | EC50 (MiaPaCa-2) [µM] | EC50 (DU-145) [µM] | EC50 (MCF-7) [µM] | EC50 (MDA-MB-231) [µM] | EC50 (PC-3) [µM] | EC50 (UM-UC-3) [µM] | EC50 (HCT-116) [µM] | EC50 (BxPC-3) [µM] | EC50 (Capan-2) [µM] | further results
O=c1c2cc(O)ccc2[nH]c2c([N+](=O)[O-])ccc(NCCCN3CCN(CCCNc4c5ccccc5nc5cccc([N+](=O)[O-])c45)CC3)c12 [C-1941] | 0.038 | 0.21 | 0.02 | 0.043 | 0.012 | 0.02 | 0.061 | 0.012 | 0.031 | 0.033 | 0.011 | – | – | TGI [%] [100 − (ΔVT/ΔVC × 100] (H T29; single 3 mg/kg): 26%; TGI [%] [100 − (ΔVT/ΔVC × 100] (H T29; single 4 mg/kg): 35%; TGI [%] [100 − (ΔVT/ΔVC × 100] (DU 145; series 2, i.p., single 4 mg/kg, total 24 mg/kg, day 35): 52%; TGI [%] [100 − (ΔVT/ΔVC × 100] (H 460; series 4, i.v., single 15 mg/kg, total 30 mg/kg, day 14): 24%; TGI [%] [100 − (ΔVT/ΔVC × 100] (Mia Pa Ca 2; series 12, i.p., single 4 mg/kg, total 32 mg/kg, day 26): 30%
Cc1ccc(NCCCN2CCN(CCCNc3c4ccccc4nc4cccc([N+](=O)[O-])c34)CC2)c2c(=O)c3ccccc3[nH]c12 [C-1973, 1-[3-(4-methyl-9(10H)-acridono-1-yl)aminopropyl]-4-3′-[(1′-nitroacridin-1-yl)-aminopropyl]piperazine] | 0.023 | 0.079 | 0.005 | 0.027 | 0.016 | 0.02 | 0.113 | 0.028 | 0.048 | 0.0095 | 0.019 | 0.059 | – | TGI [%] [100 − (ΔVT/ΔVC × 100] (PANC 1; series 31, i.v., single 2 mg/kg, total 16 mg/kg, day 37): 75%; TGI [%] [100 − (ΔVT/ΔVC × 100] (UM UC 3; single 2 mg/kg, total 14 mg/kg): 46%; TGI [%] [100 − (ΔVT/ΔVC × 100] (DU 145; series 13, i.v., single 4 mg/kg, total 32 mg/kg, day 63): 90%; TGI [%] [100 − (ΔVT/ΔVC × 100] (DU 145; series 18, i.v., single 1 mg/kg, total 8 mg/kg, day 33): 51%; TGI [%] [100 − (ΔVT/ΔVC × 100] (H 460; series 16, i.v., single 2 mg/kg, total 10 mg/kg, day 21): 42%; TGI [%] [100 − (ΔVT/ΔVC × 100] (MDA MB 231; single 1 mg/kg, total 8 mg/kg, day 50): 30%
O=c1c2cc(O)ccc2n2cnc3ccc(NCCCN4CCN(CCCNc5c6ccccc6nc6cccc([N+](=O)[O-])c56)CC4)c1c32 [C-2027, 1-[3-(8-hydroxy-imidazo[4,5,1-de]-acridin-6-on-5-yl)aminopropyl]-4-[3′-(1′-nitroacridin-1-yl)-aminopropyl]piperazine] | 0.081 | 0.191 | 0.017 | 0.024 | 0.021 | 0.02 | 0.062 | 0.019 | 0.035 | 0.018 | 0.02 | 0.164 | 0.043 | TGI [%] [100 − (ΔVT/ΔVC × 100] (PANC 1; series 10, i.v., single 2 mg/kg, total 10 mg/kg, day 45): 83%; TGI [%] [100 − (ΔVT/ΔVC × 100] (PANC 1; series 14, i.v., single 1 mg/kg, total 10 mg/kg, day 45): 23%; TGI [%] [100 − (ΔVT/ΔVC × 100] (PANC 1; series 30, i.v., single 1 mg/kg, total 8 mg/kg, day 32, *at least half of animals did not survive): 51* %; TGI [%] [100 − (ΔVT/ΔVC × 100] (UM UC 3; single 4 mg/kg, total 28 mg/kg): 47%; TGI [%] [100 − (ΔVT/ΔVC × 100] (Mia Pa Ca 2; series 12, i.v., single 2 mg/kg, total 16 mg/kg, day 26): 29%; TGI [%] [100 − (ΔVT/ΔVC × 100] (HCT 116; series 7, i.v., single 2.5 mg/kg, total 15 mg/kg, day 15): 15%
CN(CCCNc1c2ccccc2nc2cccc([N+](=O)[O-])c12)CCCNc1ccc2ncn3c4ccccc4c(=O)c1c23 [C-2028, 9-{N-[(imidazo[4,5,1-de]-acridin-6-on-5-yl)aminopropyl]-N-methylaminopropylamino}-1′-nitroacridine] | 0.037 | 0.061 | 0.015 | 0.024 | 0.079 | 0.023 | 0.053 | 0.017 | 0.028 | 0.01 | 0.017 | 0.074 | 0.011 | TGI (PANC 1; PANC-1 cancer, three consecutive experimental runs): 71% and 90% and 82%; TGI [%] [100 − (ΔVT/ΔVC × 100] (PANC 1; series 10, i.v., single 1 mg/kg, total 10 mg/kg, day 31): 71%; TGI [%] [100 − (ΔVT/ΔVC × 100] (PANC 1; series 14, i.v., single 4 mg/kg, total 36 mg/kg, day 45): 90%; TGI [%] [100 − (ΔVT/ΔVC × 100] (PANC 1; series 29, i.v., single 4 mg/kg, total 20 mg/kg, day 36): 59%; TGI [%] [100 − (ΔVT/ΔVC × 100] (PANC 1; series 32, i.v, single 2 mg/kg, total 16 mg/kg, day 40): 82%; TGI [%] [100 − (ΔVT/ΔVC × 100] (UM UC 3; single 6 mg/kg, total 42 mg/kg): 54%; TGI [%] [100 − (ΔVT/ΔVC × 100] (DU 145; series 13, i.v., single 4 mg/kg, total 32 mg/kg, day 40): 46%; TGI [%] [100 − (ΔVT/ΔVC × 100] (H 460; series 16, i.v., single 1 mg/kg, total 5 mg/kg, day 28): 31%; TGI (BXPC 3; BXPC-3, significant activity): 64%; TGI [%] [100 − (ΔVT/ΔVC × 100] (BXPC 3; series 21, i.v., single 6 mg/kg, total 30 mg/kg, day 37): 64%; TGI [%] [100 − (ΔVT/ΔVC × 100] (BXPC 3; series 33, i.v., single 4 mg/kg, total 32 mg/kg, day 36): 43%; TGI (Mia Pa Ca 2; MiaPa Ca2, threshold activity): < 50%; TGI [%] [100 − (ΔVT/ΔVC × 100] (Mia Pa Ca 2; series 12, i.v., single 6 mg/kg, total 42 mg/kg, day 36): 52%; TGI [%] [100 − (ΔVT/ΔVC × 100] (Mia Pa Ca 2; series 28, i.v., single 2 mg/kg, total 8 mg/kg, day 11, *at least half of animals did not survive): 68* %; TGI [%] [100 − (ΔVT/ΔVC × 100] (MDA MB 231; single 2 mg/kg, total 16 mg/kg, day 25): 44%; TGI [%] [100 − (ΔVT/ΔVC × 100] (HCT 116; series 7, i.v., single 4 mg/kg, total 24 mg/kg, day 15): 34%; TGI [%] [100 − (ΔVT/ΔVC × 100] (PC 3; series 12, i.p.): 30%; TGI (AsPC 1; ASP-1, threshold activity): < 50%; TGI [%] [100 − (ΔVT/ΔVC × 100] (AsPC 1; series 23, i.v., single 6 mg/kg, total 48 mg/kg, day 46): 35%
O=c1c2ccccc2[nH]c2c([N+](=O)[O-])ccc(NCCCN3CCN(CCCNc4c5ccccc5nc5cccc([N+](=O)[O-])c45)CC3)c12 [C-2031, 1-[3-(4-nitro-9(10H)-acridono-1-yl)aminopropyl]-4-[3′-(1′-nitroacridin-1-yl)-aminopropyl]piperazine] | – | 0.078 | 0.009 | 0.056 | 0.028 | 0.011 | 0.077 | 0.028 | 0.026 | 0.017 | 0.02 | – | – | TGI [%] [100 − (ΔVT/ΔVC × 100] (PANC 1; series 10, i.v., single 3 mg/kg, total 30 mg/kg, day 45): 72%; TGI [%] [100 − (ΔVT/ΔVC × 100] (PANC 1; series 14, i.v., single 1 mg/kg, total 10 mg/kg, day 37): 27%; TGI [%] [100 − (ΔVT/ΔVC × 100] (DU 145; series 13, i.v., single 4 mg/kg, total 32 mg/kg, day 35): 77%; TGI [%] [100 − (ΔVT/ΔVC × 100] (DU 145; series 18, i.p., single 1 mg/kg, total 8 mg/kg, day 64): 81%; TGI [%] [100 − (ΔVT/ΔVC × 100] (H 460; series 6, i.v., single 8 mg/kg, total 48 mg/kg, day 23): 60%; TGI [%] [100 − (ΔVT/ΔVC × 100] (HCT 116; series 8, i.v., single 6 mg/kg, total 18 mg/kg, day 14, *at least half of animals did not survive): 52* %; TGI [%] [100 − (ΔVT/ΔVC × 100] (HCT 116; series 9, i.v., single 3 mg/kg, total 24 mg/kg, day 30): 34%; TGI [%] [100 − (ΔVT/ΔVC × 100] (PC 3; series 15, i.v.): 30%
